Measurements from patent US10280166B2, “2-(1H-indazol-3-yl)-3H-imidazo[4,5-B]pyridine and therapeutic uses thereof” (Samumed, LLC, priority 2014, dated 2019).

What was measured:
[1] = system: Wnt activity (SW480 colon carcinoma cells stably expressing the Sp5-Luc reporter gene); experiment: Sp5-Luc reporter gene screening assay for Wnt activity in SW480 cells; assay type: cell-based; conditions: Homo sapiens, 42 h incubation, luminescence
In short: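 SW480 cells stably carrying an Sp5 promoter (eight TCF/LEF sites)-luciferase reporter were plated overnight in 10% FCS medium. BrightGlo luminescence was normalised to DMSO wells, and IC50 was obtained by four-parameter fit.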

[2] = system: primary human fibroblasts derived from IPF patients (LL29 cells); experiment: Inhibition of fibrosis (αSMA) in TGF-β1 treated primary human fibroblasts from IPF patients; assay type: cell-based; conditions: Fibroblast, 96 h, TGF-β1 20 ng/mL, 4 days, % αSMA positive cells
In short: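 IPF patient-derived LL29 lung fibroblasts in 1% FBS were treated with compound (11 points, 10 μM to 1.87 nM, 0.1% DMSO) and then 20 ng/mL TGF-β1 for 4 days at 37° C. Fraction of SYTOX-negative cells positive for αSMA was quantified by immunofluorescence imaging and normalized to TGF-β1 controls. EC50 came from non-linear regression over triplicate wells.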

Row | SMILES | IC50 [1] [nM] | EC50 [2] [nM]
1 | CC(C)C(=O)Nc1cncc(-c2ccc3[nH]nc(-c4nc5c(-c6ccoc6)ccnc5[nH]4)c3c2)c1 [Compound 295, N-(5-(3-(7-(Furan-3-yl)-3H-imidazo[4,5-b]pyridin-2-yl)-1H-indazol-5-yl)pyridin-3-yl)isobutyramide] | 5.1 | 0.405
2 | CCCCC(=O)Nc1cncc(-c2ccc3[nH]nc(-c4nc5c(-c6ccoc6)ccnc5[nH]4)c3c2)c1 [Compound 304, N-(5-(3-(7-(Furan-3-yl)-3H-imidazo[4,5-b]pyridin-2-yl)-1H-indazol-5-yl)pyridin-3-yl)pentanamide] | 6 | 0.079
3 | O=C(Nc1cncc(-c2ccc3[nH]nc(-c4nc5c(-c6ccoc6)ccnc5[nH]4)c3c2)c1)C1CCC1 [Compound 306, N-(5-(3-(7-(Furan-3-yl)-3H-imidazo[4,5-b]pyridin-2-yl)-1H-indazol-5-yl)pyridin-3-yl)cyclobutanecarboxamide] | 6.7 | 0.527
4 | c1cc(-c2ccoc2)c2nc(-c3n[nH]c4ccc(-c5cncc(CNCC6CCCC6)c5)cc34)[nH]c2n1 [Compound 310, 1-Cyclopentyl-N-((5-(3-(7-(furan-3-yl)-3H-imidazo[4,5-b]pyridin-2-yl)-1H-indazol-5-yl)pyridin-3-yl)methyl)methanamine] | 1270 | 9.99
5 | CCC(=O)Nc1cncc(-c2ccc3[nH]nc(-c4nc5c(-c6cccs6)ccnc5[nH]4)c3c2)c1 [Compound 313, N-(5-(3-(7-(Thiophen-2-yl)-3H-imidazo[4,5-b]pyridin-2-yl)-1H-indazol-5-yl)pyridin-3-yl)propionamide] | 2 | 0.027
6 | CC(C)(C)C(=O)Nc1cncc(-c2ccc3[nH]nc(-c4nc5c(-c6cccs6)ccnc5[nH]4)c3c2)c1 [Compound 320, N-(5-(3-(7-(Thiophen-2-yl)-3H-imidazo[4,5-b]pyridin-2-yl)-1H-indazol-5-yl)pyridin-3-yl)pivalamide] | 8.8 | 0.016
7 | CN(C)Cc1cncc(-c2ccc3[nH]nc(-c4nc5c(-c6cccs6)ccnc5[nH]4)c3c2)c1 [Compound 325, N,N-Dimethyl-1-(5-(3-(7-(thiophen-2-yl)-3H-imidazo[4,5-b]pyridin-2-yl)-1H-indazol-5-yl)pyridin-3-yl)methanamine] | 932 | 0.04
8 | O=C(Nc1cncc(-c2ccc3[nH]nc(-c4nc5c(-c6cccs6)ccnc5[nH]4)c3c2)c1)C1CC1 [Compound 331, N-(5-(3-(7-(Thiophen-2-yl)-3H-imidazo[4,5-b]pyridin-2-yl)-1H-indazol-5-yl)pyridin-3-yl)cyclopropanecarboxamide] | 34.7 | 0.155
9 | O=C(Nc1cncc(-c2ccc3[nH]nc(-c4nc5c(-c6cccs6)ccnc5[nH]4)c3c2)c1)C1CCCC1 [Compound 333, N-(5-(3-(7-(Thiophen-2-yl)-3H-imidazo[4,5-b]pyridin-2-yl)-1H-indazol-5-yl)pyridin-3-yl)cyclopentanecarboxamide] | 6.3 | 0.009
10 | FC1(F)CCN(Cc2cncc(-c3ccc4[nH]nc(-c5nc6c(-c7cccs7)ccnc6[nH]5)c4c3)c2)C1 [Compound 337, 2-(5-(5-((3,3-Difluoropyrrolidin-1-yl)methyl)pyridin-3-yl)-1H-indazol-3-yl)-7-(thiophen-2-yl)-3H-imidazo[4,5-b]pyridine] | 15 | 1.31
11 | Fc1ccc(-c2ccnc3[nH]c(-c4n[nH]c5ccc(-c6cncc(CN7CCCC7)c6)cc45)nc23)s1 [Compound 352, 7-(5-Fluorothiophen-2-yl)-2-(5-(5-(pyrrolidin-1-ylmethyl)pyridin-3-yl)-1H-indazol-3-yl)-3H-imidazo[4,5-b]pyridine] | 13.2 | 0.125
12 | Cc1ccc(-c2ccnc3[nH]c(-c4n[nH]c5ccc(-c6cncc(N)c6)cc45)nc23)s1 [Compound 367, 5-(3-(7-(5-Methylthiophen-2-yl)-3H-imidazo[4,5-b]pyridin-2-yl)-1H-indazol-5-yl)pyridin-3-amine] | 4.3 | 0.314
13 | Cc1ccc(-c2ccnc3[nH]c(-c4n[nH]c5ccc(-c6cncc(NC(=O)C(C)(C)C)c6)cc45)nc23)s1 [Compound 372, N-(5-(3-(7-(5-Methylthiophen-2-yl)-3H-imidazo[4,5-b]pyridin-2-yl)-1H-indazol-5-yl)pyridin-3-yl)pivalamide] | 0.6 | 0.009
14 | Cc1ccc(-c2ccnc3[nH]c(-c4n[nH]c5ccc(-c6cncc(CN7CCCCC7)c6)cc45)nc23)s1 [Compound 379, 7-(5-Methylthiophen-2-yl)-2-(5-(5-(piperidin-1-ylmethyl)pyridin-3-yl)-1H-indazol-3-yl)-3H-imidazo[4,5-b]pyridine] | 76 | 0.405
15 | Cc1ccc(-c2ccnc3[nH]c(-c4n[nH]c5ccc(-c6cncc(NC(=O)C7CCCC7)c6)cc45)nc23)s1 [Compound 385, N-(5-(3-(7-(5-Methylthiophen-2-yl)-3H-imidazo[4,5-b]pyridin-2-yl)-1H-indazol-5-yl)pyridin-3-yl)cyclopentanecarboxamide] | 19.2 | 0.084
16 | Cc1ccncc1-c1ccc2[nH]nc(-c3nc4c(-c5cc(F)cc(CNS(C)(=O)=O)c5)ccnc4[nH]3)c2c1 [Compound 421, N-(3-fluoro-5-(2-(5-(4-Methylpyridin-3-yl)-1H-indazol-3-yl)-3H-imidazo[4,5-b]pyridin-7-yl)benzyl)methanesulfonamide] | 6.1 | 0.045
17 | CS(=O)(=O)NCc1cc(F)cc(-c2ccnc3[nH]c(-c4n[nH]c5ccc(-c6cncc(CNCc7ccccc7)c6)cc45)nc23)c1 [Compound 439, N-(3-(2-(5-(5-((Benzylamino)methyl)pyridin-3-yl)-1H-indazol-3-yl)-3H-imidazo[4,5-b]pyridin-7-yl)-5-fluorobenzyl)methanesulfonamide] | 354 | 0.009
18 | CCNCc1cncc(-c2ccc3[nH]nc(-c4nc5c(-c6cc(F)cc(NCCN(C)C)c6)ccnc5[nH]4)c3c2)c1 [Compound 448, N^1-(3-(2-(5-(5-((Ethylamino)methyl)pyridin-3-yl)-1H-indazol-3-yl)-3H-imidazo[4,5-b]pyridin-7-yl)-5-fluorophenyl)-N^2,N^2-dimethylethane-1,2-diamine] | 203 | 0.701
19 | CC(C)Nc1cncc(-c2ccc3[nH]nc(-c4nc5c(-c6cc(F)cc(NCCN(C)C)c6)ccnc5[nH]4)c3c2)c1 [Compound 454, N^1-(3-Fluoro-5-(2-(5-(5-(isopropylamino)pyridin-3-yl)-1H-indazol-3-yl)-3H-imidazo[4,5-b]pyridin-7-yl)phenyl)-N^2,N^2-dimethylethane-1,2-diamine] | 51.7 | 0.019
20 | CN(C)CCNc1cc(F)cc(-c2ccnc3[nH]c(-c4n[nH]c5ccc(-c6cncc(CNCC7CCCC7)c6)cc45)nc23)c1 [Compound 466, N^1-(3-(2-(5-(5-(((Cyclopentylmethyl)amino)methyl)pyridin-3-yl)-1H-indazol-3-yl)-3H-imidazo[4,5-b]pyridin-7-yl)-5-fluorophenyl)-N^2,N^2-dimethylethane-1,2-diamine] | 442 | 1.11
21 | Fc1cccc(-c2ccnc3[nH]c(-c4n[nH]c5ccc(C6CCNCC6)cc45)nc23)c1 [Compound 1873, 7-(3-Fluorophenyl)-2-(5-(piperidin-4-yl)-1H-indazol-3-yl)-3H-imidazo[4,5-b]pyridine] | 3270 | 0.037
22 | Fc1cccc(-c2ccnc3[nH]c(-c4n[nH]c5ccc(C6=CCNCC6)cc45)nc23)c1 [Compound 1874, 7-(3-Fluorophenyl)-2-(5-(1,2,3,6-tetrahydropyridin-4-yl)-1H-indazol-3-yl)-3H-imidazo[4,5-b]pyridine] | > 1000 | 0.317
23 | Cn1cc(-c2ccc3[nH]nc(-c4nc5c(-c6cccc(F)c6)ccnc5[nH]4)c3c2)cn1 [Compound 1876, 7-(3-Fluorophenyl)-2-(5-(1-methyl-1H-pyrazol-4-yl)-1H-indazol-3-yl)-3H-imidazo[4,5-b]pyridine] | 61 | 9.99
24 | Cc1ncc(-c2ccc3[nH]nc(-c4nc5c(-c6cccc(F)c6)ccnc5[nH]4)c3c2)n1C [Compound 1877, 2-(5-(1,2-Dimethyl-1H-imidazol-5-yl)-1H-indazol-3-yl)-7-(3-fluorophenyl)-3H-imidazo[4,5-b]pyridine] | > 10000 | 9.99
25 | NC1CN(c2cncc(-c3ccc4[nH]nc(-c5nc6c(-c7cccc(F)c7)ccnc6[nH]5)c4c3)n2)C1 [Compound 1878, 1-(6-(3-(7-(3-Fluorophenyl)-3H-imidazo[4,5-b]pyridin-2-yl)-1H-indazol-5-yl)pyrazin-2-yl)azetidin-3-amine] | 215 | 9.99
26 | Fc1cccc(-c2ccnc3[nH]c(-c4n[nH]c5ccc(-c6cncc(OC7CCCCC7)c6)cc45)nc23)c1 [Compound 1879, 2-(5-(5-(Cyclohexyloxy)pyridin-3-yl)-1H-indazol-3-yl)-7-(3-fluorophenyl)-3H-imidazo[4,5-b]pyridine] | > 10000 | 9.99
27 | Fc1cccc(-c2ccnc3[nH]c(-c4n[nH]c5ccc(-c6cncc(OC7CCNCC7)c6)cc45)nc23)c1 [Compound 1880, 7-(3-Fluorophenyl)-2-(5-(5-(piperidin-4-yloxy)pyridin-3-yl)-1H-indazol-3-yl)-3H-imidazo[4,5-b]pyridine] | 1190 | 0.417
28 | O=C(CC1CCNCC1)Nc1cncc(-c2ccc3[nH]nc(-c4nc5c(-c6cccc(F)c6)ccnc5[nH]4)c3c2)c1 [Compound 1881, N-(5-(3-(7-(3-Fluorophenyl)-3H-imidazo[4,5-b]pyridin-2-yl)-1H-indazol-5-yl)pyridin-3-yl)-2-(piperidin-4-yl)acetamide] | 65 | 0.071
